Source: patent US10350224B2, “Stabilized modified release vitamin D formulation and method of administering same” (OPKO IRELAND GLOBAL HOLDINGS, LTD., priority 2013, dated 2019)
Like-named read-outs stand apart in the source and are kept apart here.

What was measured:
[1] = tested on: serum total 1,25-dihydroxyvitamin D; experiment: Study A: serum total 1,25-dihydroxyvitamin D after single dose; format: in vivo, human; settings: single i.v. dose 448 μg, by 6 hours post-dose
[2] = Study B: single-dose pharmacokinetics of 25-hydroxyvitamin D3 in healthy subjects; format: in vivo; settings: human, serum, iv, 448 ug, single i.v. dose 448 μg in ethanol solution
serum iPTH = experiment: Study A: serum iPTH after single dose; format: in vivo, human; settings: single i.v. dose 448 μg, first 96 hours
[3] = Study A: single-dose pharmacokinetics of serum 25-hydroxyvitamin D3 in subjects with stage 3 or 4 CKD; format: in vivo, human; settings: for Tmax / Cmax / AUC(0-t) / AUC(0-inf) / half-life: human, serum, iv, 448 ug
[4] = baseline-adjusted 25-hydroxyvitamin D3, 448 μg iv single dose
[5] = observed 25-hydroxyvitamin D3, 448 μg iv single dose

Cmax [2]: 153 ng/mL | CL mean (SD) [3, 4]: 0.036 (0.014) L/ng * h | CL median [3, 4]: 0.037 L/ng/h | F mean [3, 4]: 1.000 (NA) | Vd mean (SD) [3, 4]: 32.94 (11.00) L/ng | Vd median [3, 4]: 29.70 L/ng | λ2 mean (SD) [3, 4]: 0.0011 (0.0005) h^−1 | λ2 median [3, 4]: 0.0010 h⁻¹ | Tmax ([3]; Study A, single i.v. dose 448 μg in ethanol solution, read-out: Tmax): 30 min | Cmax ([3]; approximate mean Cmax of 25-hydroxyvitamin D3, Study A, single i.v. dose 448 μg in ethanol solution): ~134 ng/mL | AUC(0-t) ([3]; baseline-adjusted 25-hydroxyvitamin D3, 448 μg iv single dose, read-out: AUC0-42 days mean): 19600 ng·h/mL | AUC(0-t) ([3]; baseline-adjusted 25-hydroxyvitamin D3, 448 μg iv single dose, read-out: AUC0-42 days median): 18800 ng·h/mL | AUC(0-inf) ([3]; baseline-adjusted 25-hydroxyvitamin D3, 448 μg iv single dose, read-out: AUC0-inf mean): 34500 ng·h/mL | AUC(0-inf) ([3]; baseline-adjusted 25-hydroxyvitamin D3, 448 μg iv single dose, read-out: AUC0-inf median): 27000 ng·h/mL | AUC(0-t) ([3]; baseline-adjusted 25-hydroxyvitamin D3, 448 μg iv single dose, read-out: AUC0-last mean): 19600 ng·h/mL | AUC(0-t) ([3]; baseline-adjusted 25-hydroxyvitamin D3, 448 μg iv single dose, read-out: AUC0-last median): 18800 ng·h/mL | Cmax ([3]; baseline-adjusted 25-hydroxyvitamin D3, 448 μg iv single dose, read-out: Cmax mean (SD)): 110 ng/mL | Cmax ([3]; baseline-adjusted 25-hydroxyvitamin D3, 448 μg iv single dose, read-out: Cmax median): 111 ng/mL | half-life ([3]; baseline-adjusted 25-hydroxyvitamin D3, 448 μg iv single dose, read-out: t1/2 mean (SD) (converted)): 31.1 days | half-life ([3]; baseline-adjusted 25-hydroxyvitamin D3, 448 μg iv single dose, read-out: t1/2 median (converted)): 27.6 days | Tmax ([3]; baseline-adjusted 25-hydroxyvitamin D3, 448 μg iv single dose, read-out: tmax mean (SD)): 29.4 min | Tmax ([3]; baseline-adjusted 25-hydroxyvitamin D3, 448 μg iv single dose, read-out: tmax median): 15 min | AUC(0-t) ([3]; observed 25-hydroxyvitamin D3, 448 μg iv single dose, read-out: AUC0-42 days mean): 43500 ng·h/mL | AUC(0-t) ([3]; observed 25-hydroxyvitamin D3, 448 μg iv single dose, read-out: AUC0-42 days median): 47100 ng·h/mL | AUC(0-inf) ([3]; observed 25-hydroxyvitamin D3, 448 μg iv single dose, read-out: AUC0-inf mean): 138000 ng·h/mL | AUC(0-inf) ([3]; observed 25-hydroxyvitamin D3, 448 μg iv single dose, read-out: AUC0-inf median): 124000 ng·h/mL | AUC(0-t) ([3]; observed 25-hydroxyvitamin D3, 448 μg iv single dose, read-out: AUC0-last mean): 43500 ng·h/mL | AUC(0-t) ([3]; observed 25-hydroxyvitamin D3, 448 μg iv single dose, read-out: AUC0-last median): 47100 ng·h/mL | Cmax ([3]; observed 25-hydroxyvitamin D3, 448 μg iv single dose, read-out: Cmax mean (SD)): 134 ng/mL | Cmax ([3]; observed 25-hydroxyvitamin D3, 448 μg iv single dose, read-out: Cmax median): 134 ng/mL | half-life ([3]; observed 25-hydroxyvitamin D3, 448 μg iv single dose, read-out: t1/2 mean (SD) (converted)): 74 days | half-life ([3]; observed 25-hydroxyvitamin D3, 448 μg iv single dose, read-out: t1/2 median (converted)): 70.6 days | Tmax ([3]; observed 25-hydroxyvitamin D3, 448 μg iv single dose, read-out: tmax mean (SD)): 29.4 min | Tmax ([3]; observed 25-hydroxyvitamin D3, 448 μg iv single dose, read-out: tmax median): 15 min | CL mean (SD) [3, 5]: 0.0095 (0.0065) L/ng * h | CL median [3, 5]: 0.0081 L/ng/h | F mean [3, 5]: 1.000 (NA) | Vd mean (SD) [3, 5]: 20.35 (7.42) L/ng | Vd median [3, 5]: 19.550 L/ng | λ2 mean (SD) [3, 5]: 0.0005 (0.0002) h^−1 | λ2 median [3, 5]: 0.0004 h⁻¹
Compound: C=C1CC[C@H](O)C/C1=C/C=C1\CCC[C@]2(C)[C@@H]([C@H](C)CCCC(C)(C)O)CC[C@@H]12 [25-hydroxyvitamin D3]
increase of mean serum total 1,25-dihydroxyvitamin D from pre-treatment baseline [1]: approximately 13 pg/mL | change in serum iPTH (serum iPTH): no meaningful change
